From US20150297639A1, “TREATING CANCER” (Rhode Island Hospital, A Lifespan-Partner, priority 2012, published 2015)

Columns and labels:
DU145 cell line = DU145 cell line treated with 9NC; cited from earlier work
DU145 cells = test: PARP cleavage Western blot, DU145 cells treated with CPT; assay type: cell-based, human; details: 100 nM CPT 24 hours, vs untreated control cells
Method: FIGS. 1A-D are a series of photomicrographs and bar graphs showing ECV-mediated reversal of apoptosis resistance and sensitivity. A, B. ECVs were isolated from DU145 S and DU145 R prostate cells. The ECVs were resuspended in PBS. DU145 S cells were co-cultured with DU145 R ECVs and DU145 R cells were co-cultured with DU145 S ECVs. Non-ECV and ECV co-cultured cells were treated with 100 nM of the anticancer agent camptothecin (CPT) for 24 hours and examined for PARP cleavage and actin via Western blot analysis to measure apoptosis. C, D. The same experiment from A and B was repeated and the samples were examined for apoptosis via propidium iodide staining using a flow cytometer. […]
Total cell extracts were prepared as previously described, and protein concentrations of lysates were determined using a Bradford assay kit (BioRad). […] Proteins recognized by antibodies were detected by enhanced chemilluminescence reagents (GE Healthcare).
To investigate the effects of ECV-mediated transfer of chemoresistance in prostate cancer, the mechanism of resistance to camptothecin (CPT) was studied in human prostate cancer cell lines. […] After six days, both groups were treated with CPT, cells were harvested and analyzed for apoptosis via Poly ADP Ribose Polymerase (PARP) cleavage. […] The same experiment was repeated, and the cells were analyzed for apoptosis via flow cytometry.

MCF7 breast cancer cells = test: PARP cleavage Western blot, MCF7 cells treated with Dox; assay type: cell-based, human; details: Dox 24 hours
Method: (§1) FIG. 8 is a photomicrograph showing MCF7 and MDR breast cancer cells treated with the indicated doses of doxorubicin (Dox) for 24 hours. Western blot analysis was performed to measure the cleavage of PARP (an indicator of apoptosis induction).
(§2) The transfer of chemosensitivity of MCF7 (sensitive) and MCF/MDR (resistant) (MDR) breast cancer cells that are sensitive or resistant, respectively to doxorubicin (Dox) was explored. These cells, similar to the prostate cancer cells, were grown in medium with serum that was depleted of ECVs.

MCF-7 cells = test: Apoptosis by flow cytometry, MCF-7 cells treated with Dox; assay type: cell-based, human; details: 10 nM Dox 24 hours
Method: FIG. 10 is a bar graph showing the amount of apoptosis in MCF-7 cells that were treated with 10 nM Dox for 24 hours in the presence or absence of MDR ECVs. Cells were harvested and apoptosis measured by flow cytometry. A paired t-test was performed * comparing Dox-treated MCF7 cells and MCF7 cells co-cultured with MDR ECVs. * A paired t-test (p<0.0005) was performed comparing the reduction in soft agar colony formation between Dox treated and MCF7+MDR ECVs+Dox.
The reciprocal experiment from FIG. 9 was performed, and ECVs were isolated from MDR (resistant) cells and co-cultured with MCF7 (sensitive) cells for three days and treated with 10 nM Dox. The cells were analyzed for apoptosis induction by flow cytometry.

MDR breast cancer cells = test: PARP cleavage Western blot, MDR cells treated with Dox; assay type: cell-based, human; details: Dox 24 hours
Method: as §1
FIG. 9 is a photomicrograph of a Western blot analysis for PARP cleavage and actin in protein lysates isolated from MDR (resistant) cells that were co-cultured with MCF7 (sensitive) ECVs for three days then treated with the indicated concentrations of Dox.
as §2
A reciprocal experiment was performed and ECVs from MCF-7 (sensitive) cells were isolated and co-cultured with MDR (resistant) cells for three days. The MDR (resistant) cells were treated with two doses of Dox.

SMILES: CC[C@@]1(O)C(=O)OCc2c1cc1n(c2=O)Cc2cc3c([N+](=O)[O-])cccc3nc2-1 [9NC, 9-nitrocamptothecin]
- apoptosis (DU145 cell line): extensive apoptosis

SMILES: CC[C@@]1(O)C(=O)OCc2c1cc1n(c2=O)Cc2cc3ccccc3nc2-1 [CPT, camptothecin]
- PARP cleavage (DU145 cells): increase in PARP cleavage

SMILES: COc1cccc2c1C(=O)c1c(O)c3c(c(O)c1C2=O)C[C@@](O)(C(=O)CO)C[C@@H]3O[C@H]1C[C@H](N)[C@H](O)[C@H](C)O1 [Dox, doxorubicin]
- apoptosis measured by cleavage of PARP (MCF7 breast cancer cells): sensitive to dose-dependent induction of apoptosis
- apoptosis (MCF-7 cells): underwent significant apoptosis
- apoptosis measured by cleavage of PARP (MDR breast cancer cells): remained resistant
